From ChEMBL document CHEMBL4400521, “Plasma kallikrein cleaves and inactivates apelin-17: Palmitoyl- and PEG-extended apelin-17 analogs as metabolically stable blood pressure-lowering agents” (Eur J Med Chem, 2019)
Calls of active or inactive are those of the source. The calls are words filed in the database; no cut-off is given here. Non-standard residues stand in square brackets, D forms with d. Residues, ends and D or L forms follow the SMILES beside them. *: point of attachment. Phe(4-Br) = N[C@@H](Cc1ccc(Br)cc1)C(=O)O; Fmoc = O=C(OCC1c2ccccc2-c2ccccc21)*; PEG6 = NCCOCCOCCOCCOCCOCCOCCC(=O)O; Palmitoyl = CCCCCCCCCCCCCCCC(=O)*; NMeL = CN[C@@H](CC(C)C)C(=O)O; Nle = CCCC[C@H](N)C(=O)O; Aib = CC(C)(N)C(=O)O

What was measured:
[1] = test system: Mus musculus; experiment: Blood pressure lowering activity in anesthetized mouse assessed as change in mean arterial blood pressure at 1.4 uM/kg, iv; format: functional; settings: TDE = time-dependent effect
[2] = target: T1, Apelin receptor (Rattus norvegicus) (UniProt Q9JHG3); experiment: Displacement of [125I]-(Glp1,Nle11,[…])apelin-13 from recombinant rat EGFP-fused apelin receptor expressed in CHO cell membrane measured after 3 hrs; format: cell membranes
T1 sequence (whole entry): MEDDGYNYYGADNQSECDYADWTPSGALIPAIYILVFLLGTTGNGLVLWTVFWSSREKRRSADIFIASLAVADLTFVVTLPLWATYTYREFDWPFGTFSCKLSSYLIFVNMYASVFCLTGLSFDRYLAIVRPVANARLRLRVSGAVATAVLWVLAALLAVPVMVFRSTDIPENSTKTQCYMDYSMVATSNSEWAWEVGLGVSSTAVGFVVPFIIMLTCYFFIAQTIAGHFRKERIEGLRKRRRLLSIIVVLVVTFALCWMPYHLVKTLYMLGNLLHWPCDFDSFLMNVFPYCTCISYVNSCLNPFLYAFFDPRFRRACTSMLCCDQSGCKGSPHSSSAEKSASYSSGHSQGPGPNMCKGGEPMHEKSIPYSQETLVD

[3] = test system: CC[C@H](C)[C@H](NC(=O)[C@H](CCCNC(=N)N)NC(=O)[C@H](CO)NC(=O)[C@H](CO)NC(=O)[C@H](CCCNC(=N)N)NC(=O)[C@H](Cc1ccccc1)NC(=O)[C@@H]1CCCN1C(=O)[C@H](CO)NC(=O)[C@H](Cc1ccccc1)NC(=O)CNC(=O)c1ccccc1N)C(=O)N[C@@H](CCC(N)=O)C(=O)NCCNc1ccc([N+](=O)[O-])cc1[N+](=O)[O-]; experiment: (§1) Substrate activity at human KLKB1 assessed as Km by fluorescence assay; format: ADME
[4] = test system: CC[C@H](C)[C@H](NC(=O)[C@H](CCCNC(=N)N)NC(=O)[C@H](CC(C)C)NC(=O)[C@H](CO)NC(=O)[C@H](CCCNC(=N)N)NC(=O)[C@H](Cc1ccccc1)NC(=O)[C@@H]1CCCN1C(=O)[C@H](CO)NC(=O)[C@H](Cc1ccccc1)NC(=O)CNC(=O)c1ccccc1N)C(=O)N[C@@H](CCC(N)=O)C(=O)NCCNc1ccc([N+](=O)[O-])cc1[N+](=O)[O-]; experiment: as §1; format: ADME
[5] = test system: CSCC[C@H](NC(=O)[C@H](CO)NC(=O)[C@H](CO)NC(=O)[C@H](CC(C)C)NC(=O)[C@@H](N)CO)C(=O)N[C@H](C(=O)N[C@@H](CCCNC(=N)N)C(=O)N[C@H](C(=O)N[C@H](C(=O)NCC(=O)NCC(=O)O)C(C)C)C(C)C)[C@@H](C)O; experiment: Substrate activity at human KLKB1 assessed as Km by spectrofluorimetric method; format: ADME
[6] = test system: CCCC[C@H](NC(=O)[C@@H]1CCCN1C(=O)CNC(=O)[C@H](CCCCN)NC(=O)[C@H](Cc1c[nH]cn1)NC(=O)[C@H](CO)NC(=O)[C@H](CC(C)C)N(C)C(=O)[C@H](CCCNC(=N)N)NC(=O)[C@@H]1CCCN1C(=O)[C@H](CCCNC(=N)N)NC(=O)[C@H](CCC(N)=O)NC(=O)[C@H](CCCNC(=N)N)NC(=O)[C@H](CCCNC(=N)N)NC(=O)[C@H](Cc1ccccc1)NC(=O)[C@@H](N)CCCCN)C(=O)NC(C)(C)C(=O)N[C@@H](Cc1ccc(Br)cc1)C(=O)O; experiment: (§2) Substrate activity at recombinant human C-terminal His6-tagged KLKB1 (Pro19 to Ser262 residues) expressed in mammalian expression system assessed as Km measured after 30 to 60 mins by LC-MS analysis; format: ADME
[7] = test system: CCCC[C@H](NC(=O)[C@@H]1CCCN1C(=O)CNC(=O)[C@H](CCCCN)NC(=O)[C@H](Cc1c[nH]cn1)NC(=O)[C@H](CO)NC(=O)[C@H](CC(C)C)NC(=O)[C@H](CCCNC(=N)N)NC(=O)[C@@H]1CCCN1C(=O)[C@H](CCCNC(=N)N)NC(=O)[C@H](CCC(N)=O)NC(=O)[C@H](CCCNC(=N)N)NC(=O)[C@H](CCCNC(=N)N)NC(=O)[C@H](Cc1ccccc1)NC(=O)[C@@H](N)CCCCN)C(=O)NC(C)(C)C(=O)N[C@@H](Cc1ccc(Br)cc1)C(=O)O; experiment: as §2; format: ADME
[8] = test system: Mus musculus; experiment: Blood pressure lowering activity in anesthetized mouse assessed as increase in heart rate at 1.4 uM/kg, iv measured up to 60 mins; format: functional, organism-based

Chain of Plasma kallikrein (Homo sapiens) (chain, as listed by the source): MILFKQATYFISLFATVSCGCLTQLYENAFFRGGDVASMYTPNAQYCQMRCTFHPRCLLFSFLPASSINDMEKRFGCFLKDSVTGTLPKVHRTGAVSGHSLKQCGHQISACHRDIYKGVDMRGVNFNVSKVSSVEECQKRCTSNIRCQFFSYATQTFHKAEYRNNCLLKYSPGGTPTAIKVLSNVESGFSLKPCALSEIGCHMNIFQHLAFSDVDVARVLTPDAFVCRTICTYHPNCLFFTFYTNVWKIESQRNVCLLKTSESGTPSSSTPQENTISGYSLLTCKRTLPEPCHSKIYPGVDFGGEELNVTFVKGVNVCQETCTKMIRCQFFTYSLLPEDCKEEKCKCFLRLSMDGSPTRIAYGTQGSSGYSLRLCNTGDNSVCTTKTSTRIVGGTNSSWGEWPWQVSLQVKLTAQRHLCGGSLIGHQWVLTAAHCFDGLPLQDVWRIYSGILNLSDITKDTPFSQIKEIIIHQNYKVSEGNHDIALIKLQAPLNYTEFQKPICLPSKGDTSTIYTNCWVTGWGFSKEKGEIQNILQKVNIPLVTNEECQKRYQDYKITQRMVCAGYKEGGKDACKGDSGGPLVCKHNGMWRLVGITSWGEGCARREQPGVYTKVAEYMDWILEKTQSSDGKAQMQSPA

| Compound | displacement activity (active/inactive) [2] | Activity [1] | other results |
| --- | --- | --- | --- |
| Plasma kallikrein (Homo sapiens) | – | – | Km [3]: 2.2 µM; Km [4]: 1.8 µM; Km [5]: 2.4 µM; kcat [5]: 0.001 s⁻¹; kcat/Km [5]: 420 M⁻¹ s⁻¹; Km [6]: 245 µM; Vmax [6]: 3.71 µmol/min; kcat [6]: 16.5 s⁻¹; kcat/Km [6]: 67000 M⁻¹ s⁻¹; Km [7]: 30 µM; Vmax [7]: 0.316 µmol/min; kcat [7]: 1.4 s⁻¹; kcat/Km [7]: 47000 M⁻¹ s⁻¹ |
| CCCC[C@H](NC(=O)[C@@H]1CCCN1C(=O)CNC(=O)[C@H](CCCCN)NC(=O)[C@H](Cc1cnc[nH]1)NC(=O)[C@H](CO)NC(=O)[C@H](CC(C)C)N(C)C(=O)[C@H](CCCNC(=N)N)NC(=O)[C@@H]1CCCN1C(=O)[C@H](CCCNC(=N)N)NC(=O)[C@H](CCC(N)=O)NC(=O)[C@H](CCCNC(=N)N)NC(=O)[C@H](CCCNC(=N)N)NC(=O)[C@H](Cc1ccccc1)NC(=O)[C@H](CCCCN)NC(=O)CCOCCOCCOCCOCCOCCOCCNC(=O)OCC1c2ccccc2-c2ccccc21)C(=O)NC(C)(C)C(=O)N[C@@H](Cc1ccc(Br)cc1)C(=O)O ({Fmoc-PEG6}-KFRRQRPR[NMeL]SHKGP[Nle][Aib][Phe(4-Br)]-OH) | Active | Tde | – |
| CCCCCCCCCCCCCCCC(=O)N[C@@H](CCCCN)C(=O)N[C@@H](Cc1ccccc1)C(=O)N[C@@H](CCCNC(=N)N)C(=O)N[C@@H](CCCNC(=N)N)C(=O)N[C@@H](CCC(N)=O)C(=O)N[C@@H](CCCNC(=N)N)C(=O)N1CCC[C@H]1C(=O)N[C@@H](CCCNC(=N)N)C(=O)N(C)[C@@H](CC(C)C)C(=O)N[C@@H](CO)C(=O)N[C@@H](Cc1cnc[nH]1)C(=O)N[C@@H](CCCCN)C(=O)NCC(=O)N1CCC[C@H]1C(=O)N[C@@H](CCCC)C(=O)NC(C)(C)C(=O)N[C@@H](Cc1ccc(Br)cc1)C(=O)O (Palmitoyl-KFRRQRPR[NMeL]SHKGP[Nle][Aib][Phe(4-Br)]-OH) | Active | – | Activity [8]: Active |
| CSCC[C@H](NC(=O)[C@@H]1CCCN1C(=O)CNC(=O)[C@H](CCCCN)NC(=O)[C@H](Cc1cnc[nH]1)NC(=O)[C@H](CO)NC(=O)[C@H](CC(C)C)NC(=O)[C@H](CCCNC(=N)N)NC(=O)[C@@H]1CCCN1C(=O)[C@H](CCCNC(=N)N)NC(=O)[C@H](CCC(N)=O)NC(=O)[C@H](CCCNC(=N)N)NC(=O)[C@H](CCCNC(=N)N)NC(=O)[C@H](Cc1ccccc1)NC(=O)[C@@H](N)CCCCN)C(=O)N1CCC[C@H]1C(=O)N[C@@H](Cc1ccccc1)C(=O)O | – | Tde | – |
| CCCC[C@H](NC(=O)[C@@H]1CCCN1C(=O)CNC(=O)[C@H](CCCCN)NC(=O)[C@H](Cc1cnc[nH]1)NC(=O)[C@H](CO)NC(=O)[C@H](CC(C)C)NC(=O)[C@H](CCCNC(=N)N)NC(=O)[C@@H]1CCCN1C(=O)[C@H](CCCNC(=N)N)NC(=O)[C@H](CCC(N)=O)NC(=O)[C@H](CCCNC(=N)N)NC(=O)[C@H](CCCNC(=N)N)NC(=O)[C@H](Cc1ccccc1)NC(=O)[C@H](CCCCN)NC(=O)CCOCCOCCOCCOCCOCCOCCNC(=O)OCC1c2ccccc2-c2ccccc21)C(=O)NC(C)(C)C(=O)N[C@@H](Cc1ccc(Br)cc1)C(=O)O ({Fmoc-PEG6}-KFRRQRPRLSHKGP[Nle][Aib][Phe(4-Br)]-OH) | Active | Tde | – |

Further lines, with some results ahead:

| displacement activity (active/inactive) [2] | Compound | Activity [1] | other results |
| --- | --- | --- | --- |
| Active | CCCC[C@H](NC(=O)[C@@H]1CCCN1C(=O)CNC(=O)[C@H](CCCCN)NC(=O)[C@H](Cc1c[nH]cn1)NC(=O)[C@H](CO)NC(=O)[C@H](CC(C)C)N(C)C(=O)[C@H](CCCNC(=N)N)NC(=O)[C@@H]1CCCN1C(=O)[C@H](CCCNC(=N)N)NC(=O)[C@H](CCC(N)=O)NC(=O)[C@H](CCCNC(=N)N)NC(=O)[C@H](CCCNC(=N)N)NC(=O)[C@H](Cc1ccccc1)NC(=O)[C@@H](N)CCCCN)C(=O)NC(C)(C)C(=O)N[C@@H](Cc1ccc(Br)cc1)C(=O)O (H-KFRRQRPR[NMeL]SHKGP[Nle][Aib][Phe(4-Br)]-OH) | Tde | – |
| Active | CCCCCCCCCCCCCCCC(=O)N[C@@H](CCCCN)C(=O)N[C@@H](Cc1ccccc1)C(=O)N[C@@H](CCCNC(=N)N)C(=O)N[C@@H](CCCNC(=N)N)C(=O)N[C@@H](CCC(N)=O)C(=O)N[C@@H](CCCNC(=N)N)C(=O)N1CCC[C@H]1C(=O)N[C@@H](CCCNC(=N)N)C(=O)N[C@@H](CC(C)C)C(=O)N[C@@H](CO)C(=O)N[C@@H](Cc1cnc[nH]1)C(=O)N[C@@H](CCCCN)C(=O)NCC(=O)N1CCC[C@H]1C(=O)N[C@@H](CCCC)C(=O)NC(C)(C)C(=O)N[C@@H](Cc1ccc(Br)cc1)C(=O)O (Palmitoyl-KFRRQRPRLSHKGP[Nle][Aib][Phe(4-Br)]-OH) | Tde | – |
| Active | CCCC[C@H](NC(=O)[C@@H]1CCCN1C(=O)CNC(=O)[C@H](CCCCN)NC(=O)[C@H](Cc1c[nH]cn1)NC(=O)[C@H](CO)NC(=O)[C@H](CC(C)C)NC(=O)[C@H](CCCNC(=N)N)NC(=O)[C@@H]1CCCN1C(=O)[C@H](CCCNC(=N)N)NC(=O)[C@H](CCC(N)=O)NC(=O)[C@H](CCCNC(=N)N)NC(=O)[C@H](CCCNC(=N)N)NC(=O)[C@H](Cc1ccccc1)NC(=O)[C@@H](N)CCCCN)C(=O)NC(C)(C)C(=O)N[C@@H](Cc1ccc(Br)cc1)C(=O)O (H-KFRRQRPRLSHKGP[Nle][Aib][Phe(4-Br)]-OH) | Tde | – |
| Active | CCCC[C@H](NC(=O)[C@@H]1CCCN1C(=O)CNC(=O)[C@H](CCCCN)NC(=O)[C@H](Cc1cnc[nH]1)NC(=O)[C@H](CO)NC(=O)[C@H](CC(C)C)NC(=O)[C@H](CCCNC(=N)N)NC(=O)[C@@H]1CCCN1C(=O)[C@H](CCCNC(=N)N)NC(=O)[C@H](CCC(N)=O)NC(=O)[C@@H](N)CCCNC(=N)N)C(=O)NC(C)(C)C(=O)N[C@@H](Cc1ccc(Br)cc1)C(=O)O (H-RQRPRLSHKGP[Nle][Aib][Phe(4-Br)]-OH) | Tde | – |
| Active | CCCC[C@H](NC(=O)[C@@H]1CCCN1C(=O)CNC(=O)[C@H](CCCCN)NC(=O)[C@H](Cc1cnc[nH]1)NC(=O)[C@H](CO)NC(=O)[C@H](CC(C)C)N(C)C(=O)[C@H](CCCNC(=N)N)NC(=O)[C@@H]1CCCN1C(=O)[C@H](CCCNC(=N)N)NC(=O)[C@H](CCC(N)=O)NC(=O)[C@@H](N)CCCNC(=N)N)C(=O)NC(C)(C)C(=O)N[C@@H](Cc1ccc(Br)cc1)C(=O)O (H-RQRPR[NMeL]SHKGP[Nle][Aib][Phe(4-Br)]-OH) | Tde | – |
